Data on 21 compounds can be found in patent US20240166624A1, “PPARG INVERSE AGONISTS AND USES THEREOF” (Flare Therapeutics Inc., priority 2021, published 2024).

Assay [1] concerns the target T1, PPARG/RXRA LBD heterodimer (Homo sapiens, UniProt P37231).
T1 construct: His-TEV-Q203-Y477; Uniprot ID P37231-2; made in house; host or cells: E. coli
As to the kind of experiment: PPARγ-NCOR1 recruitment assay (TR-FRET, biotinylated NCOR1 ID2 peptide). The class given is biochemical. The note with it: 80 nM Rosiglitazone, 3 hours, read-out: PPARG-NCOR recruitment assay EC50. The procedure, abridged: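 2 nM each of E. coli-expressed PPARG LBD (Q203-Y477) and RXRA LBD (WT or S427F, E228-T462) with biotinylated NCOR1 ID2 peptide, incubated 3 h; TR-FRET read at Ex/Em 615/665. Ratios normalized to DMSO (0%) and T0070907 maximum (100%) for EC50 and maximal recruitment.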
T1 sequence (O75376 2251-2273 partner, one chain of several): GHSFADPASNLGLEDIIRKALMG

For assay [2], the target named is T2, PPARG/RXRA LBD heterodimer (Homo sapiens, UniProt P37231).
T2 construct: His-TEV-Q203-Y477; Uniprot ID P37231-2; made in house; host or cells: E. coli
T2 sequence (P37231 203-477 isoform P37231-2): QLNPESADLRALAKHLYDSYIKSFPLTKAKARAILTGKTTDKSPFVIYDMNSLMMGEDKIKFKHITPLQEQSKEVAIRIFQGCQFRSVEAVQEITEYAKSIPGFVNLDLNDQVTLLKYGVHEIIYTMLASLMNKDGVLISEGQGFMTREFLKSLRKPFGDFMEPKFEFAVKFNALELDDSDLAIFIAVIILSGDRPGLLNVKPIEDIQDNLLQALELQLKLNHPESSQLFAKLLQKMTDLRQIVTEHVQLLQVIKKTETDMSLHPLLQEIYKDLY
T2 sequence (P19793 228-462 partner limits assumed): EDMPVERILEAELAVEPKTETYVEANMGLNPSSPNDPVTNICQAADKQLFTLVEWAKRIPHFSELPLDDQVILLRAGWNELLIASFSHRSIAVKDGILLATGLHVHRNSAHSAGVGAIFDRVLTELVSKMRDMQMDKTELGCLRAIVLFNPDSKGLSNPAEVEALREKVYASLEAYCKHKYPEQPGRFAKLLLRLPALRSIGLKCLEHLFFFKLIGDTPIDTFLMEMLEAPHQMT
As to the kind of experiment: PPARγ-MED1 blockade assay (TR-FRET, biotinylated MED1 LxxLL peptide). Format: biochemical. The note with it: WT PPARG LBD/WT RXRA LBD, 80 nM Rosiglitazone, 3 hours. In a few lines:
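TR-FRET measuring biotinylated MED1 LxxLL peptide association with 2 nM each His-PPARG LBD (Q203-Y477) and Flag-RXRA LBD (E228-T462), E. coli expressed. Read after 3 h incubation; ratios normalized to DMSO (0%) and GW9662 minimum (100%) for IC50 and maximal MED1 repulsion.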

For assay [3], the system named is ANGPTL4, a PPARG target gene, in HT1197 (RXRA S427F mutation) cells. In words: Bladder cancer pharmacodynamic assay, HT1197 cell assay (qPCR of ANGPTL4). To be noted: Homo sapiens, 24 hours, 100 nM compound, relative to DMSO control. Format: cell-based. The procedure, abridged:
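5637 (PPARG amplified) and HT1197 (RXRA S427F) cells treated 24 h with PPARG inverse agonists. FABP4 and ANGPTL4 expression measured by qPCR, normalised to TBP, and reported relative to DMSO control by ΔΔCt.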

Some results are limits rather than exact numbers.

Regarding `CN(C)C(=O)c1cccc(-c2c(F)cc3[nH]c(-c4cc(C#N)ccc4Cl)cc(=O)c3c2F)n1` [Example 85, 6-(2-(2-chloro-5-cyanophenyl)-5,7-difluoro-4-oxo-1,4-dihydroquinolin-6-yl)-N,N-dimethylpicolinamide], the EC50 in assay [1] and in assay [2] was 1000 to 10000 nM each time. The compound also showed an inhibition at 0.1 µM in assay [3] of 59%.

As for `CN(C)C(=O)c1cc(-c2c(F)cc3[nH]c(-c4cc(C#N)ccc4Cl)cc(=O)c3c2F)cc(F)c1F` [Example 86, 5-(2-(2-chloro-5-cyanophenyl)-5,7-difluoro-4-oxo-1,4-dihydroquinolin-6-yl)-2,3-difluoro-N,N-dimethylbenzamide], the EC50 in assay [1] and in assay [2] was 100 to 1000 nM in each case. The same compound showed an inhibition at 0.1 µM in assay [3] of 75%.

`CN(C)C(=O)c1cc(-c2c(F)cc3[nH]c(-c4cc(C#N)ccc4Cl)cc(=O)c3c2F)c(F)cc1F` [Example 87, 5-(2-(2-chloro-5-cyanophenyl)-5,7-difluoro-4-oxo-1,4-dihydroquinolin-6-yl)-2,4-difluoro-N,N-dimethylbenzamide]: the EC50 in assay [1] and in assay [2] was 100 to 1000 nM in each case. In addition, at 0.1 µM the inhibition in assay [3] was 75%.

Consider `CN(C)C(=O)c1cc(-c2c(F)cc3[nH]c(-c4cc(C#N)ccc4Cl)cc(=O)c3c2F)ccn1` [Example 88, 4-(2-(2-chloro-5-cyanophenyl)-5,7-difluoro-4-oxo-1,4-dihydroquinolin-6-yl)-N,N-dimethylpicolinamide], for which the figures for the EC50 in assay [1] and in assay [2] were 1000 to 10000 nM and > 10000 nM, respectively. Moreover, 0.1 µM produced 41% inhibition in assay [3].

For `CN(C)C(=O)c1cc(-c2c(F)cc3[nH]c(-c4cc(C#N)ccc4Cl)cc(=O)c3c2F)ccc1C(F)(F)F` [Example 89, 5-(2-(2-chloro-5-cyanophenyl)-5,7-difluoro-4-oxo-1,4-dihydroquinolin-6-yl)-N,N-dimethyl-2-(trifluoromethyl)benzamide], the EC50 in assay [1] and in assay [2] was 100 to 1000 nM in each case. The compound also returned an inhibition at 0.1 µM in assay [3] of 56%.

`N#Cc1ccc(Cl)c(-c2cc(=O)c3c(F)c(C(O)CO)c(F)cc3[nH]2)c1` (stereo not drawn) [Example 90, 4-chloro-3-(6-(1,2-dihydroxyethyl)-5,7-difluoro-4-oxo-1,4-dihdroquinolin-2-yl)benzonitrile]: the EC50 in assay [1] was 1000 to 10000 nM; in assay [2], > 10000 nM. The inhibition at 0.1 µM in assay [3] was found to be 0%.

As for `N#Cc1ccc(Cl)c(-c2cc(=O)c3c(F)c(-c4ccn(CC(O)CO)n4)c(F)cc3[nH]2)c1` (stereo not drawn) [Example 92, 4-chloro-3-(6-(1-(2,3-dihydroxypropyl)-1H-pyrazol-3-yl)-5,7-difluoro-4-oxo-1,4-dihydroquinolin-2-yl)benzonitrile], the EC50 in assay [1] and in assay [2] was 100 to 1000 nM in each case. For the same compound, in assay [3], the inhibition at 0.1 µM came to 24%.

Turning to `N#Cc1ccc(Cl)c(-c2cc(=O)c3c(F)c(C4=CCNCC4)c(F)cc3[nH]2)c1` [Example 93, 4-chloro-3-(5,7-difluoro-4-oxo-6-(1,2,3,6-tetrahydropyridin-4-yl)-14-dihydroquinolin-2-yl)benzonitrile], the EC50 in assay [1] and in assay [2] was 1000 to 10000 nM throughout. Also, the inhibition at 0.1 µM in assay [3] was found to be 48%.

Turning to `N#Cc1ccc(Cl)c(-c2cc(=O)c3c(F)c(C4CCNCC4)c(F)cc3[nH]2)c1` [Example 94, 4-chloro-3-(5,7-difluoro-4-oxo-6-(piperidin-4-yl)-1,4-dihydroquinolin-2-yl)benzonitrile], the EC50 in assay [1] and in assay [2] was 1000 to 10000 nM each time. The compound further displayed an inhibition at 0.1 µM in assay [3] of 27%.

As for `CC(=O)N1CCC(c2c(F)cc3[nH]c(-c4cc(C#N)ccc4Cl)cc(=O)c3c2F)CC1` [Example 95, 3-(6-(1-acetylpiperidin-4-yl)-5,7-difluoro-4-oxo-1,4-dihydroquinolin-2-yl)-4-chlorobenzonitrile], the EC50 in assay [1] and in assay [2] was 100 to 1000 nM throughout. In addition, the inhibition at 0.1 µM in assay [3] came to 87%.

In the case of `CC(=O)N1CCN(c2c(F)cc3[nH]c(-c4cc(C#N)ccc4Cl)cc(=O)c3c2F)CC1` [Example 96, 3-(6-(4-acetylpiperazin-1-yl)-5,7-difluoro-4-oxo-1,4-dihydroquinolin-2-yl)-4-chlorobenzonitrile], the EC50 in assay [1] and in assay [2] was 1000 to 10000 nM each time. This compound also came in with an inhibition at 0.1 µM in assay [3] of 82%.

Regarding `N#Cc1ccc(Cl)c(-c2cc(=O)c3c(F)c(-c4cc[nH]n4)c(F)cc3[nH]2)c1` [Example 97, 4-chloro-3-(5,7-difluoro-4-oxo-6-(1H-pyrazol-3-yl)-1,4-dihydroquinolin-2-yl)benzonitrile], the EC50 in assay [1] and in assay [2] was 100 to 1000 nM each time. The compound further yielded an inhibition at 0.1 µM in assay [3] of 52%.

Turning to `N#Cc1ccc(Cl)c(-c2cc(=O)c3c(F)c(N4CC5(COC5)C4)c(F)cc3[nH]2)c1` [Example 98, 4-chloro-3-(5,7-difluoro-4-oxo-6-(2-oxa-6-azaspiro[3.3]heptan-6-yl)-14-dihydroquinolin-2-yl)benzonitrile], the figures for the EC50 in assay [1] and in assay [2] were 100 to 1000 nM and 1000 to 10000 nM, respectively. Testing at 0.1 µM in assay [3] gave an inhibition of 87%.

For `CN1CC2(C1)CN(c1c(F)cc3[nH]c(-c4cc(C#N)ccc4Cl)cc(=O)c3c1F)C2` [Example 99, 4-chloro-3-(5,7-difluoro-6-(6-methyl-2,6-diazaspiro[3.3]heptan-2-yl)-4-oxo-1,4-dihydroquinolin-2-yl)benzonitrile], the EC50 in assay [1] and in assay [2] was > 10000 nM in each case. Also, the inhibition at 0.1 µM in assay [3] was found to be 59%.

Turning to `CN(C)C1CN(c2c(F)cc3[nH]c(-c4cc(C#N)ccc4Cl)cc(=O)c3c2F)C1` [Example 100, 4-chloro-3-(6-(3-(dimethylamino)azetidin-1-yl)-5,7-difluoro-4-oxo-1,4-dihydroquinolin-2-yl)benzonitrile], the EC50 in assay [1] and in assay [2] was 1000 to 10000 nM each time. Also, at 0.1 µM the inhibition in assay [3] was 87%.

Consider `CS(=O)(=O)C1CN(c2c(F)cc3[nH]c(-c4cc(C#N)ccc4Cl)cc(=O)c3c2F)C1` [Example 101, 4-chloro-3-(5,7-difluoro-6-(3-(methylsulfonyl)azetidin-1-yl)-4-oxo-1,4-dihydroquinolin-2-yl)benzonitrile], for which the EC50 in assay [1] and in assay [2] was 1000 to 10000 nM in each case. The compound also registered an inhibition at 0.1 µM in assay [3] of 52%.

Regarding `CN(C)C(=O)C1CN(c2c(F)cc3[nH]c(-c4cc(C#N)ccc4Cl)cc(=O)c3c2F)C1` [Example 102, 1-(2-(2-chloro-5-cyanophenyl)-5,7-difluoro-4-oxo-1,4-dihydroquinolin-6-yl)-N,N-dimethylazetidine-3-carboxamide], the EC50 in assay [1] and in assay [2] was 1000 to 10000 nM throughout. In assay [3], this compound returned an inhibition at 0.1 µM of 81%.

Take `COC1CN(c2c(F)cc3[nH]c(-c4cc(C#N)ccc4Cl)cc(=O)c3c2F)C1` [Example 103, 4-chloro-3-(5,7-difluoro-6-(3-methoxyazetidin-1-yl)-4-oxo-1,4-dihydroquinolin-2-yl)benzonitrile]: the EC50 in assay [1] and in assay [2] was 1000 to 10000 nM in each case. In addition, the inhibition at 0.1 µM in assay [3] is 82%.

As to `CO[C@H]1CCN(c2c(F)cc3[nH]c(-c4cc(C#N)ccc4Cl)cc(=O)c3c2F)C1` [Example 104, (S)-4-chloro-3-(5,7-difluoro-6-(3-methoxypyrrolidin-1-yl)-4-oxo-1,4-dihydroquinolin-2-yl)benzonitrile], the EC50 in assay [1] and in assay [2] was 100 to 1000 nM in each case. In assay [3], this compound returned an inhibition at 0.1 µM of 78%.

In the case of `CN1CCN(c2cc3c(=O)cc(-c4cc(C#N)ccc4Cl)[nH]c3cc2Cl)CC1` [Example 105, 4-chloro-3-(7-chloro-6-(4-methylpiperazin-1-yl)-4-oxo-1,4-dihydroquinolin-2-yl)benzonitrile], the EC50 in assay [1] and in assay [2] was 1000 to 10000 nM throughout. The compound also displayed an inhibition at 0.1 µM in assay [3] of 60%.

With `CO[C@@H]1CCN(c2c(F)cc3[nH]c(-c4cc(C#N)ccc4Cl)cc(=O)c3c2F)C1` [Example 106, (R)-4-chloro-3-(5,7-difluoro-6-(3-methoxypyrrolidin-1-yl)-4-oxo-1,4-dihydroquinolin-2-yl)benzonitrile], the EC50 in assay [1] and in assay [2] was 100 to 1000 nM in each case. In addition, the inhibition at 0.1 µM in assay [3] turned out to be 75%.
